Results taken from ChEMBL document CHEMBL1144152, “Oceanapiside, an antifungal bis-alpha,omega-amino alcohol glycoside from the marine sponge Oceanapia phillipensis” (1999).
In brackets after ≈: the same amount, converted by molar mass. Activity calls are given as the source filed them. The rule behind the calls is not given here.

Key:
[1] = system: Candida albicans; test: Antifungal activity against Candida albicans ATCC 14503; format: functional, organism-based
[2] = system: Candida albicans; test: Antifungal activity against fluconazole-resistant Candida albicans UCD-FR1; format: functional, organism-based
[3] = system: Nakaseomyces glabratus; test: Antifungal activity against fluconazole-resistant Candida glabrata by broth dilution method; format: functional
[4] = system: Candida albicans; test: Antifungal activity against fluconazole-resistant Candida albicans 96-489; format: functional, organism-based
[5] = system: Pichia kudriavzevii; test: Antifungal activity against Candida krusei; format: functional, organism-based

Q: Which Activity [1] does the source give for C[C@@H](N)[C@H](O)CCCCCCCCCCCCCCC(=O)CCCCCCC[C@@H](O[C@@H]1O[C@H](CO)[C@@H](O)[C@H](O)[C@H]1O)[C@@H](N)CO here?
A: inactive

Q: What about the Activity [2] of the same compound?
A: inactive

Q: What about the MIC [3] of the same compound?
A: 10 µg/mL (≈ 15.4 µM)

Q: What about the Activity [4] of the same compound?
A: inactive

Q: And the Activity [5]?
A: inactive

Q: For C[C@@H]1[C@H](O)[C@@H](C)/C=C/C=C/C=C/C=C/C=C/C=C/C=C/[C@H](O[C@@H]2O[C@H](C)[C@@H](O)[C@H](N)[C@@H]2O)C[C@@H]2O[C@](O)(C[C@@H](O)C[C@@H](O)[C@H](O)CC[C@@H](O)C[C@@H](O)CC(=O)O[C@H]1C)C[C@H](O)[C@H]2C(=O)O [AMPHOTERICIN B], which MIC [3] is on record?
A: 1 µg/mL (≈ 1.08 µM)

Q: C[C@@H](N)[C@H](O)CCCCCCCCCCCCCCC(=O)CCCCCCC[C@@H](O)[C@@H](N)CO was tested. Which MIC [3] did it give?
A: 3 µg/mL (≈ 6.16 µM)
